# Key:
# [1] = system: LNCaP_Vancouver prostate cells; experiment: In Vitro LNCaP Vancouver Prostate Cell Proliferation Assay in Lipid Reduced Medium; assay type: cell-based; conditions: lipid reduced serum, 96 h, read-out: Vancouver Cells pIC50 (converted)
# Experimental: LNCaP_Vancouver prostate cells were obtained from the Vancouver Prostate Cancer Centre. Cells were maintained in RPMI-1640, 10% Fetal Calf Serum (FCS, Hyclone), 2 mM glutamine and 50 μg/ml Gentamicin.
# For the proliferation experiment 1500 LNCaP_Vancouver cells per well were seeded in a 384-well black with clear bottom plate (costar 3712BC) in 40 μl RPMI-1640, 10% Lipid reduced serum (LRS, Hyclone), 50 μg/ml Gentamicin and 2 mM Glutamine and incubated at 37° C., 5% CO2. The next day 10 μl of test compound/DMSO diluted in medium was added (3E-5M, 1E-5M, 3E-6M, 1E-6M, 3E-7M, 1E-7M, 3E-8M, 1E-8M final concentration). Compounds were tested in duplicate. After 96 h incubation at 37° C., 5% CO2 25 μl ATP-glow mix was added. The plate was incubated for 30 min at 37° C. and luminescence was measured with the Envision.
# pIC50 values were calculated as follows. Raw data generated by the instruments were normalized to % Controlmin values, which were calculated as: % Controlmin=100*(x−mLC)/(mHC−mLC),
# where mLC and mHC are the means of the low control wells and high control wells on the plate, after manual exclusion of outliers. The relation between the % Controlmin values and concentration was fitted to a 4-parameter logistic curve using a non-linear least squares regression method to determine the pIC50 value. Outlying data points were excluded manually to get a correct fit. The pIC50 corresponds to −log 10(IC50), if the IC50 is expressed in molar units (http://www.ncbi.nlm.nih.gov/books/NBK91994). The IC50 parameter was always determined by non-linear regression, but one or more of the other parameters may have been held fixed on a relevant input value, such as 0 for the bottom values.
# For dose response curves with FASN inhibitors in LNCaP_Vancouver or PC-3M-Luc_C6 cells the curves bottom out around 30 to 40% of the control value. A standard fit PL2, forcing the lower bound to this level was used.
# Representative compounds of the present invention were tested according to the procedure as described in Biological Example 4a and 4b above, with results as listed in Table BIO-4, below.
# [2] = target: T1, hFASN enzyme (full length) (Homo sapiens, UniProt P49327); experiment: Fatty Acid Synthase (FASN) Inhibition Scintillation Proximity Assay; assay type: biochemical; conditions: for IC50: mean where tested more than once, ~ = standard error of pIC50 larger than 0.5; for inhibition at 10 µM: read-out: FASN % Effect @1E−05M
# T1 construct: 10 μL hFASN enzyme (full length, 300 ng, purified in house); made in house
# T1 sequence (P49327 whole entry): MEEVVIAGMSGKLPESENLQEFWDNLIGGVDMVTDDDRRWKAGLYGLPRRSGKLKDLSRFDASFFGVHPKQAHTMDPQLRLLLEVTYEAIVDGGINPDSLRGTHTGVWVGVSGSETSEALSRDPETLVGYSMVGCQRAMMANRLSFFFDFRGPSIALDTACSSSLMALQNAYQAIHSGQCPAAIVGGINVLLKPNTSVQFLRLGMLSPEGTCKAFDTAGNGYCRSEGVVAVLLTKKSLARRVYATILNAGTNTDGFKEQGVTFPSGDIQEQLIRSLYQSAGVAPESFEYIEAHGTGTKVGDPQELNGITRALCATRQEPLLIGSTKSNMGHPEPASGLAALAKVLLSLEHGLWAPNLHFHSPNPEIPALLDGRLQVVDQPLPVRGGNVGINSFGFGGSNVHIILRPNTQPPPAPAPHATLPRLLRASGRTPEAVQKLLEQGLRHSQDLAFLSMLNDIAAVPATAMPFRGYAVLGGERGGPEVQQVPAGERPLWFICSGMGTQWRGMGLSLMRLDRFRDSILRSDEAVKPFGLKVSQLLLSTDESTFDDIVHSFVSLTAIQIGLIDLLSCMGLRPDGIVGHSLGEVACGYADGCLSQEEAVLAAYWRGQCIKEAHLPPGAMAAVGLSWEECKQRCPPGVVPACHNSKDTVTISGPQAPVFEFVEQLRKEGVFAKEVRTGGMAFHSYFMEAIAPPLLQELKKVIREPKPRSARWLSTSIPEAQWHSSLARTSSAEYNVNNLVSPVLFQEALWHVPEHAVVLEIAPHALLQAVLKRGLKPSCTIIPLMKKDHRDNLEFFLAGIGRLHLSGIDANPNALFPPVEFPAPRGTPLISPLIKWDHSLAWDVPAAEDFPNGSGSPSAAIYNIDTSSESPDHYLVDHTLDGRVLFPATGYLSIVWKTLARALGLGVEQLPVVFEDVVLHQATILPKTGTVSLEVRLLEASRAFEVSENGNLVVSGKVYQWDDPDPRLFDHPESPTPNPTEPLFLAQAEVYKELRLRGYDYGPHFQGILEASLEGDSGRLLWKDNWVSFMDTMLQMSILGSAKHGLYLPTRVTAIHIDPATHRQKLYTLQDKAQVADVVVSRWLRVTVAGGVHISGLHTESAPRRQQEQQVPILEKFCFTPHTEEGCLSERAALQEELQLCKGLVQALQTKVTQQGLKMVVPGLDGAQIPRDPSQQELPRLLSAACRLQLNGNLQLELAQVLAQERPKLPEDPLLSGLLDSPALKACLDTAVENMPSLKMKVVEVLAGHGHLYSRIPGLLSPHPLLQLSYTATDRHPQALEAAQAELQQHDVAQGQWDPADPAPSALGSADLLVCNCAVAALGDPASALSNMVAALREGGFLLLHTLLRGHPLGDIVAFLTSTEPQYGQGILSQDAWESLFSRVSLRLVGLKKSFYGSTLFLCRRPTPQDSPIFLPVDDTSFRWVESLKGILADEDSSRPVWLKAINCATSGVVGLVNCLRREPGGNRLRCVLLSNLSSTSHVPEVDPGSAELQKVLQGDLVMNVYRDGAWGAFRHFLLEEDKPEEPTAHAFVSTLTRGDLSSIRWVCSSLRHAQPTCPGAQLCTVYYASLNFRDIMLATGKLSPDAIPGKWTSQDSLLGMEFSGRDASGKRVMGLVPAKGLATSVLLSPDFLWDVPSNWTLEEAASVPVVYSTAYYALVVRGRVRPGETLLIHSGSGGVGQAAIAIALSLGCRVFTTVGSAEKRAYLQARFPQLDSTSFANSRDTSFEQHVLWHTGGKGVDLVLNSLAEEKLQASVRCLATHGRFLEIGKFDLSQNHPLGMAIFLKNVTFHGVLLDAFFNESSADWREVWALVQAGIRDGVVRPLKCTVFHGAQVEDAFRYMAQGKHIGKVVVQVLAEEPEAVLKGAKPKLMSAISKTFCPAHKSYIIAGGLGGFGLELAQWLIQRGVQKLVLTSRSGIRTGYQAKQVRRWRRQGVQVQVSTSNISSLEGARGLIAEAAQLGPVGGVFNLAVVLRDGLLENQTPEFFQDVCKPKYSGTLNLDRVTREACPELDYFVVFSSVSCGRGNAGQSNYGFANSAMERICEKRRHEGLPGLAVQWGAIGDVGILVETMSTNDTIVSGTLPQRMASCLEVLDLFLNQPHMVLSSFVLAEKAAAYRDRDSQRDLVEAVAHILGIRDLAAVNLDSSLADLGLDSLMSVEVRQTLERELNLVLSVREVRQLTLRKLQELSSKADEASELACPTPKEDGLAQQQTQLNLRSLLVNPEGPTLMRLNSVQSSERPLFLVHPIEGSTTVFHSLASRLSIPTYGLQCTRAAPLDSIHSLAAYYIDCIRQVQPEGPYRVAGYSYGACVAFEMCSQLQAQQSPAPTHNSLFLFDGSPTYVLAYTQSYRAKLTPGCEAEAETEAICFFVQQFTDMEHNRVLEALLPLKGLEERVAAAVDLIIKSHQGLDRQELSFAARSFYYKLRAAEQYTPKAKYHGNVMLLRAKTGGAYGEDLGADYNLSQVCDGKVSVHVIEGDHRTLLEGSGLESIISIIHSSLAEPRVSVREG
# Summary of the method: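 Eight compound concentrations (0.01–30 μM) tested in pH 7.5 phosphate buffer with DTT; human full-length enzyme converted [3H]-acetyl-CoA plus malonyl-CoA, with NADPH, over 60 min at room temperature. Hydrophobic [3H]-palmitate detected by bead proximity scintillation imaging; control-normalised data fitted for IC50/pIC50.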
# [3] = Toxicity Huh7-ATP (cytotoxicity alongside the HCV replicon assay); conditions: human, Huh7 cells
# [4] = Cytotoxicity in HeLa cells (ATPlite); assay type: cell-based; conditions: human, in parallel to RSV assay, read-out: CC50 (Toxicity HeLa Cells)
# Experimental: Black 96-well clear-bottom microtiter plates (Corning, Amsterdam, The Netherlands) were filled in duplicate using a customized robot system with serial 4-fold dilutions of test compound in a final volume of 50 μl culture medium [RPMI medium without phenol red, 10% FBS, 0.04% gentamycin (50 mg/mL) and 0.5% DMSO]. Then, 100 μl of a HeLa cell suspension (5×10^4 cells/mL) in culture medium was added to each well followed by the addition of 50 μl rgRSV224 (MOI=0.02) virus in culture medium using a multidrop dispenser (Thermo Scientific, Erembodegem, Belgium). rgRSV224 virus is an engineered virus that includes an additional GFP gene (HALLAK, L. K., et. al., “Glycosaminoglycan sulfation requirements for respiratory syncytial virus infection.” J. Virol., 2000, pp 10508-10513, Vol. […]). Medium, virus- and mock-infected controls were included in each test. Cells were incubated at 37° C. in a 5% CO2 atmosphere. Three days post-virus exposure, viral replication was quantified by measuring GFP expression in the cells by a MSM laser microscope (Tibotec, Beerse, Belgium). […] In parallel, test compounds were incubated for three days in a set of white 96-well microtitier plates (Corning) and the cytotoxicity of compounds in HeLa cells was determined by measuring the ATP content of the cells using the ATPlite kit (PerkinElmer, Zaventem, Belgium) according to the manufacturer's instructions. […]
SMILES,IC50 [1] [nM],IC50 [2] [nM],inhibition at 10 µM [2] [%],CC50 [3] [nM],CC50 at 3 days [4] [nM]
"CN(c1ccc(C(=O)N2CCC(c3ccc(-c4cnn(C)c4)cc3)CC2)cc1NC(=O)C1CC1)C1CC1 [Compound 288, N-(2-(cyclopropyl(methyl)amino)-5-(4-(4-(1-methyl-1H-pyrazol-4-yl)phenyl)piperidine-1-carbonyl)phenyl)cyclopropanecarboxamide]",~9770,871,88,–,–
"COCCNc1ccc(C(=O)N2CCC(c3ccc(-c4cnn(C)c4)cc3)CC2)cc1NC(=O)C1CC1 [Compound 286, N-(2-((2-methoxyethyl)amino)-5-(4-(4-(1-methyl-1H-pyrazol-4-yl)phenyl)piperidine-1-carbonyl)phenyl)cyclopropanecarboxamide]",4070,513,91,–,–
"Cc1ccc(C(=O)N2CCC(c3ccc(-c4cnn(C)c4)cc3)CC2)cc1NC(=O)c1ccc(NC(C)C)nc1 [Compound #32, 6-(isopropylamino)-N-(2-methyl-5-(4-(4-(1-methyl-1H-pyrazol-4-yl)phenyl)piperidine-1-carbonyl)phenyl)nicotinamide]",93.3,26.9,104,> 25000,> 25000
"CC(C)Nc1ccc(C(=O)Nc2cc(C(=O)N3CCC(c4ccc(-c5cnn(C)c5)cc4)CC3)ccc2N(C)C(C)C)cn1 [Compound 276, N-(2-(isopropyl(methyl)amino)-5-(4-(4-(1-methyl-1H-pyrazol-4-yl)phenyl)piperidine-1-carbonyl)phenyl)-6-(isopropylamino)nicotinamide]",1380,372,93,–,–
"CC(C)N(C)c1ccc(C(=O)N2CCC(c3ccc(-c4cnn(C)c4)cc3)CC2)cc1NC(=O)c1ccc(Cl)nc1 [Compound 274, 6-chloro-N-(2-(isopropyl(methyl)amino)-5-(4-(4-(1-methyl-1H-pyrazol-4-yl)phenyl)piperidine-1-carbonyl)phenyl)nicotinamide]",1950,437,88,–,–
"COCCN(C)c1ccc(C(=O)N2CCC(c3ccc(-c4cnn(C)c4)cc3)CC2)cc1NC(=O)C1CC1 [Compound 278, N-(2-((2-methoxyethyl)(methyl)amino)-5-(4-(4-(1-methyl-1H-pyrazol-4-yl)phenyl)piperidine-1-carbonyl)phenyl)cyclopropanecarboxamide]",6170,813,85,–,–
"COCCN(C)c1ccc(C(=O)N2CCC(c3ccc(-c4cnn(C)c4)cc3)CC2)cc1NC(=O)c1ccc(NC(C)C)nc1 [Compound 281, 6-(isopropylamino)-N-(2((2-methoxyethyl)(methyl)amino)-5-(4-(4-(1-methyl-1H-pyrazol-4-yl)phenyl)piperidine-1-carbonyl)phenyl)nicotinamide]",~1350,457,93,–,–

# Further compounds by falling IC50 [2], results first:
IC50 [1] [nM],IC50 [2] [nM],inhibition at 10 µM [2] [%],SMILES,CC50 [3] [nM],CC50 at 3 days [4] [nM]
~537,~166,74,"CC(C)Nc1ccc(C(=O)Nc2cc(C(=O)N3CCC(c4ccc(-c5cnn(C)c5)cc4)CC3)ccc2N)cn1 [Compound 285, N-(2-amino-5-(4-(4-(1-methyl-1H-pyrazol-4-yl)phenyl)piperidine-1-carbonyl)phenyl)-6-(isopropylamino)nicotinamide]",–,–
1020,126,95,"CC(C)Nc1ccc(C(=O)Nc2cc(C(=O)N3CCC(c4ccc(-c5cnn(C)c5)cc4)CC3)ccc2NC(C)C)cn1 [Compound 284, 6-(isopropylamino)-N-(2-(isopropylamino)-5-(4-(4-(1-methyl-1H-pyrazol-4-yl)phenyl)piperidine-1-carbonyl)phenyl)nicotinamide]",–,–
1050,110,98,"CC(C)Nc1ccc(C(=O)Nc2cc(C(=O)N3CCC(c4ccc(-c5cnn(C)c5)cc4)CC3)ccc2NC2CC2)cn1 [Compound 283, N-(2-(cyclopropylamino)-5-(4-(4-(1-methyl-1H-pyrazol-4-yl)phenyl)piperidine-1-carbonyl)phenyl)-6-(isopropylamino)nicotinamide]",–,–
977,100,98,"CC(C)Nc1ccc(C(=O)Nc2cc(C(=O)N3CCC(c4ccc(-c5cnn(C)c5)cc4)CC3)ccc2N(C)C2CC2)cn1 [Compound 287, N-(2-(cyclopropyl(methyl)amino)-5-(4-(4-(1-methyl-1H-pyrazol-4-yl)phenyl)piperidine-1-carbonyl)phenyl)-6-(isopropylamino)nicotinamide]",–,–
372,70.8,99,"CC(C)Nc1ccc(C(=O)Nc2cc(C(=O)N3CCC(c4ccc(-c5cnn(C)c5)cc4)CC3)ccc2N(C)C)cn1 [Compound 280, N-(2-(dimethylamino)-5-(4-(4-(1-methyl-1H-pyrazol-4-yl)phenyl)piperidine-1-carbonyl)phenyl)-6-(isopropylamino)nicotinamide]",–,–
1020,70.8,99,"COCCNc1ccc(C(=O)N2CCC(c3ccc(-c4cnn(C)c4)cc3)CC2)cc1NC(=O)c1ccc(NC(C)C)nc1 [Compound 282, 6-(isopropylamino)-N-(2-((2-methoxyethyl)amino)-5-(4-(4-(1-methyl-1H-Pyrazol-4-yl)phenyl)piperidine-1-carbonyl)phenyl)nicotinamide]",–,–
692,56.2,99,"CN(C)c1ccc(C(=O)N2CCC(c3ccc(-c4cnn(C)c4)cc3)CC2)cc1NC(=O)c1ccc(Cl)nc1 [Compound 275, 6-chloro-N-(2-(dimethylamino)-5-(4-(4-(1-methyl-1H-pyrazol-4-yl)phenyl)piperidine-1-carbonyl)phenyl)nicotinamide]",–,–
263,41.7,98,"CNc1ccc(C(=O)N2CCC(c3ccc(-c4cnn(C)c4)cc3)CC2)cc1NC(=O)c1ccc(NC(C)C)nc1 [Compound #279, 6-(isopropylamino)-N-(5-(4-(4-(1-methyl-1H-pyrazol-4-yl)phenyl)piperidine-1-carbonyl)-2-(methylamino)phenyl)nicotinamide]",–,–
~34.7,~10.2,120,"Cc1ccc(C(=O)N2CC(c3ccc(-c4cnn(C)c4)cc3)C2)cc1NC(=O)c1ccc(N(C)C(C)C)nc1 [Compound #78, 6-(isopropyl(methyl)amino)-N-(2-methyl-5-(3-(4-(1-methyl-1H-pyrazol-4-yl)phenyl)azetidine-1-carbonyl)phenyl)nicotinamide]",–,–
29.5,9.55,118,"Cc1ccc(C(=O)N2CC(c3ccc(-c4cnn(C)c4)cc3)C2)cc1NC(=O)c1ccc(N2CCOCC2)nc1 [Compound #66, N-(2-methyl-5-(3-(4-(1-methyl-1H-pyrazol-4-yl)phenyl)azetidine-1-carbonyl)phenyl)-6-morpholinonicotinamide]",–,–

# From patent publication US9562035B2, “Benzamide derivative useful as FASN inhibitors for the treatment of cancer” (Janssen Pharmaceutica NV, priority 2013, dated 2017)
